Tests used:
[1] = tested on: NO in exhaled air; assay: Mouthwashes and NO in exhaled air; assay type: in vivo, humans
Description: (§1) Ten healthy non-smoking subjects, age 23-43, were included in the study. The NO measurements were made with a chemiluminescense technique according to the recommendations recently described in the ERS Task Force Report (Kharitonov et al., 1997). The values of NO concentration were then registered in a computer software program together with the values of flow and pressure, measured with a pneunotachygraf, and calculations of these parameters were presented on a screen.
The following describes briefly the “single-breath” method for orally exhaled air. Compressed NO free air was continuously flowing into a non-diffusing gas collection bag, 100 l capacity (Hans Rudolph Inc.), at a rate of 2-3 l/min. The bag was connected via a tube to a Y-piece with a one-way valve, which in turn was adapted to a mouthpiece. Before the measurements the subjects inhaled NO free air through the mouthpiece and were asked to hold their breath for 10 s while they put their tongue into the mouthpiece's opening, in order to prevent NO from diffusing out. Then the subjects exhaled through the mouthpiece at a flow rate of about 0.15 l/s against a resistance of 50 cmH2O/l/s (Hans Rudolph Inc.), giving rise to an oral pressure of 8-10 cmH2O, for a period of 20 s. The exhaled air went out through the other one-way valve in the Y-piece leading on to a linear pneumotachymeter (Hans Rudolph Inc.), where the values of flow and pressure were registered and transformed into digital signals recorded by a computer software program (Medical Breath Analyser™ from Aerocrine AB, Sweden). The recordings were instantly visualized on a computer screen, which enabled the subjects to maintain a certain flow (i.e. 0.15 l/s), adjusting the exhalation to the flow curve. A fraction of the exhaled air was aspirated into the NO analyzer (Eco Physics Inc., Model CLD 700 AL) at a flow rate of approximately 0.5 l/min, through a 110-cm narrow-bore and Teflon®-coated tube connected to the mouthpiece. The detected NO levels were passed on to the computer and integrated with the figures for flow and pressure for calculation of NO release rate (pmol/s) and NO amount (pmol). NO release was calculated by the formula: NO-conc×Q=pmol/s×l/s=pmol/s. The conversion of NO-conc in ppb to a molecular unit goes via the fact that the volume of 1 mol of NO takes up 24.445 liters at normal temperature and pressure. Given this 1 ppb NO equals 40.908 pM. At the flow of 0.15 l/s and e.g. a NO-conc of 10 ppb the NO release equals 67 pmol/s. The use of NO-release, instead of NO-concentration as a registration unit, has the advantage of taking the flow rate into account, whereas in the use of NO-concentration the exhalation flow is not taken into consideration. In addition to the curves for flow and pressure two curves for NO concentration and NO release were plotted on the screen and calculated mean values were presented for the last 40% of the breath, representing the plateau phase. NO amount was also presented for the first 40%, representing the area under curve for the peak.
In order to further manipulate with the conditions in the oral cavity and perhaps influence the formation of NO from salivary nitrite different mouthwashes were introduced in the study. On a separate day, from that of the nitrate load, the ten subjects volunteered to have their NO in exhaled air measured after rinsing their mouth with distilled water, sodium bicarbonate-, ascorbic acid- and, nitrite solutions in named order. Further, a mouthwash with Chlorhexidine acetate 0.2% was included in the study.
In the first series of mouthwashes 5 baseline measurements with a breathhold were performed to obtain a reference value. In fact, all measurements in this part of the experiment were done with a breathhold, for the reasons described above. […]

[2] = tested on: NO formation from saliva
Protocol: On another occasion the subjects were asked to produce 10 ml of saliva, without time restriction, by again chewing on a piece of Teflon®-plastic. Half of this, i.e. 5 ml, was put in a 50 ml plastic syringe with an addition of 0.5 ml distilled water and closed with a three-way stopcock after filling it up with 50 ml of room air. The remaining 5 ml were mixed with 0.5 ml 20 mM nitrite solution (resulting in a salivary nitrite concentration of a […]) and put in another syringe filled with 50 ml of room air. The two syringes were put in a warming cupboard with an approximate temperature of 40° C. for 15 min. The air head space from both syringes was then collected in two separate empty 50 ml syringes and it's NO concentration was determined by the NO chemiluminescence analyser.

[3] = tested on: NO in exhaled air; assay: Mouthwash after nitrate loading, NO in exhaled air; assay type: in vivo, humans
Protocol: The experiment was terminated with a mouthwash of sodium bicarbonate after 180 min with a following single-breath measurements. This to examine whether the mouthwash's possible reduction of the NO formation would be enhanced at a stage when one would expect high levels of NO. For mouthwash procedure see below.
In addition to the mouthwash with sodium bicarbonate after […], the effects of chlorhexidine was studied at a stage when one could expect larger amounts of nitrite in the saliva. This was also done in a separate experiment, on a separate day, not to interfere with the results of the original nitrate loading study. Five single-breaths with a breathhold were carried out to obtain a reliable baseline. Thereafter a load of 400 mg potassium nitrate was ingested, as described above. However, to facilitate this experiment for the subjects there was no demand for fasting. Five additional single-breaths were performed 90 min later—to get representative mean values of NO after nitrate ingestion. The subjects then rinsed their mouths with 2.5 cl chlorhexidine acetate 0.2% for 30 s and performed a NO measurement immediately afterwards. The single-breath procedure was also repeated 2, 5, 10, 20 and 30 min after the mouthwash.

[4] = tested on: nasal NO; assay: Nasal NO after nitrate loading; assay type: in vivo, humans; details: 5-180 min after nitrate loading
Description: To look into nasal NO levels a somewhat new approach taking advantage of the set-up for measurements in exhaled air was used. A “nose-olive”, tried out individually for a tight fitting to the subject's nostrils, was attached to the Teflon®-coated tube leading in to the NO-analyzer. The olive was then placed in one of the nostrils letting the NO analyzer aspirate air from the nasal cavity. Even though the subjects kept breathing through their mouth the NO concentrations oscillated with every breath, pointing to a leakage of NO from the nose to the oral cavity. The subjects were asked to take a deep breath and exhale through the mouthpiece against the same resistance as above, while the olive still was sampling from the nose. The oscillations of the NO values then ceased and the concentrations increased to a stable plateau, visualized on the computer screen. The time for exhalation was set to 20 s. which was well sufficient to reach a plateau. A mean value of the NO concentration during the last 40% of the exhalation, i.e. 8 s. was presented by the computer program and included in the protocol. […]
An amount of 400 mg potassium nitrate was dissolved in a cup of distilled water and then swallowed down. […] NO in exhaled air was measured first without and then with a breathhold, as mentioned above.

[5] = tested on: NO in exhaled air; assay: Nitrate loading: NO in orally exhaled air, single-breath chemiluminescence; assay type: in vivo, humans
Description: as §1
The following describes briefly the “single-breath” method for orally exhaled air. Compressed NO free air was continuously flowing into a non-diffusing gas collection bag, 100 l capacity (Hans Rudolph Inc.), at a rate of 2-3 l/min. The bag was connected via a tube to a Y-piece with a one-way valve, which in turn was adapted to a mouthpiece. Before the measurements the subjects inhaled NO free air through the mouthpiece and were asked to hold their breath for 10 s while they put their tongue into the mouthpiece's opening, in order to prevent NO from diffusing out. Then the subjects exhaled through the mouthpiece at a flow rate of about 0.15 l/s against a resistance of 50 cmH2O/l/s (Hans Rudolph Inc.), giving rise to an oral pressure of 8-10 cmH2O, for a period of 20 s. The exhaled air went out through the other one-way valve in the Y-piece leading on to a linear pneumotachymeter (Hans Rudolph Inc.), where the values of flow and pressure were registered and transformed into digital signals recorded by a computer software program (Medical Breath Analyser™ from Aerocrine AB, Sweden). The recordings were instantly visualized on a computer screen, which enabled the subjects to maintain a certain flow (i.e. 0.15 l/s), adjusting the exhalation to the flow curve. A fraction of the exhaled air was aspirated into the NO analyzer (Eco Physics Inc., Model CLD 700 AL) at a flow rate of approximately 0.5 l/min, through a 110-cm narrow-bore and Teflon®-coated tube connected to the mouthpiece. The detected NO levels were passed on to the computer and integrated with the figures for flow and pressure for calculation of NO release rate (pmol/s) and NO amount (pmol). NO release was calculated by the formula: NO-conc×Q=pmol/s×l/s=pmol/s. The conversion of NO-conc in ppb to a molecular unit goes via the fact that the volume of 1 mol of NO takes up 24.445 liters at normal temperature and pressure. Given this 1 ppb NO equals 40.908 pM. At the flow of 0.15 l/s and e.g. a NO-conc of 10 ppb the NO release equals 67 pmol/s. The use of NO-release, instead of NO-concentration as a registration unit, has the advantage of taking the flow rate into account, whereas in the use of NO-concentration the exhalation flow is not taken into consideration. In addition to the curves for flow and pressure two curves for NO concentration and NO release were plotted on the screen and calculated mean values were presented for the last 40% of the breath, representing the plateau phase. NO amount was also presented for the first 40%, representing the area under curve for the peak. […]
Changes in NO levels were analysed by using non-parametric ANOVA for paired and repeated measures with subsequent Dunn's post-test as offered by InStat from GraphPad Software. Nitrate and nitrite concentrations in the saliva were analysed by the non-parametric method of […] for paired measurements, using the same software. […]

[6] = tested on: exhaled NO output; assay: Mouthwash trials: NO output in exhaled air; assay type: in vivo, humans; details: for effect on NO output: 30 s mouthwash with 25 ml
Protocol: Experimental protocol: Exhaled NO was measured at an exhalation flow rate of 100 ml/s and the NO output was calculated. Measurements were repeated 3 times at each time point and the median value was used. After baseline measurements, the test subjects (n=3) were asked to rinse their mouth with 25 ml of different solutions during 30 s whereafter the solution was spat out All solutions were made up in distilled water. Exhaled NO measurements were repeated directly after, and 5, 15 and 30 min after the mouthwash procedure. Results are given as mean relative changes in NO output compared to baseline measurements.

[7] = tested on: NO synthesis in the oral cavity; details: prior treatment with mouthwash, healthy volunteers; cited from earlier work
[8] = 120 min after nitrate ingestion, after breathhold
[9] = 0 min after 30 s mouthwash with 25 ml, n=3
[10] = immediately after 30 s mouthwash (3 cl), with breathhold, baseline 41.1±3.3, n=10
[11] = immediately after 30 s mouthwash, baseline 497.6±52.7

## O=N[O-].[K+] [nitrite solution, potassium nitrite]
[1]; 0.1 M nitrite solution
  increase of plateau NO release compared to baseline: > 40 fold
[1]; 60 s after 30 s mouthwash
  peak level of NO: 2812.1±622.1 ppb
  plateau NO release: 225.2 ± 44.0 pmol/s
[1]; dose-response rinse, 1 mM nitrite solution, one single-breath after rinsing
  plateau NO release: 55.0 ± 8.7 pmol/s
[1]; dose-response rinse, 0.1 M nitrite solution
  plateau NO release: 1791.8 ± 404.8 pmol/s
[2]; 5 ml saliva + 0.5 ml 20 mM nitrite, about 40° C., 15 min, pure saliva 59.5±29.8
  NO concentration in head space of incubated saliva: 396.4±138.2 ppb
[2]; nitrite added to saliva
  increase of NO formation versus pure saliva: more than 500%

## O=[N+]([O-])[O-].[K+] [potassium nitrate]
[3]; 90 min after 400 mg potassium nitrate, not fasting, control 34.8±4.2
  NO release: 60.8 ± 6.4 pmol/s
[3]; 90 min after nitrate load
  increase of NO release compared to control levels: ~2 fold
[4]
  changes in nasal NO production: no significant changes in NO production
[5]; 120 min after ingestion of 400 mg potassium nitrate, without breathhold, baseline 31.2±3.0, mean±SEM n=10
  NO release during the plateau: 77.0 ± 15.2 pmol/s
[5]; [8]
  increase of peak NO amount compared to baseline: 130%
  peak level: total amount NO released during the first 40% of the exhalation: 819 ± 160.8 pmol
[5]; 120 min after nitrate ingestion, with breathhold, baseline 31.9±4.5
  NO release during the plateau: 70.8 ± 11.6 pmol/s
[5]; 120 min after nitrate ingestion, without breathhold
  increase of plateau NO release compared to baseline: ~150%

## O=S(=O)([O-])[O-].[Fe+2] [100 mg FeSO4]
[6]
  effect on NO output: increased NO output

## CC(=O)O.CC(=O)O.NC(=N\CCCCCC/N=C(N)/N=C(\N)Nc1ccc(Cl)cc1)/N=C(\N)Nc1ccc(Cl)cc1 [chlorhexidine acetate]
[3]; immediately after 0.2% mouthwash (2.5 cl, 30 s) given 90 min after nitrate load, before mouthwash 60.8±6.4
  NO release: 33.9 ± 4.3 pmol/s
[3]; mouthwash 90 min after nitrate load
  immediate reduction of NO levels: ~50%
[1]; 0.2% mouthwash, control (fasting) situation
  immediate decrease of NO compared to baseline: ~30%
[1]; immediately after 30 s mouthwash with 2.5 cl 0.2%, pH 8.0, separate day, baseline 33.9±2.9
  NO release: 24.1 ± 3.5 pmol/s
[6]; [9]
  mean relative change in NO output compared to baseline: −14% at
[6]; 5 min after mouthwash
  mean relative change in NO output compared to baseline: −11% at
[6]; 15 min after mouthwash
  mean relative change in NO output compared to baseline: −5% at
[6]; 30 min after mouthwash
  mean relative change in NO output compared to baseline: −10% at

## O=C1O[C@H]([C@@H](O)CO)C(O)=C1O [ascorbic acid]
[1]; [10]
  plateau NO release: 155.0 ± 27.6 pmol/s
[1]; [11]
  peak level of NO: 2482.5±601.9 ppb
[1]; immediately after mouthwash
  increase of peak concentration: around 400%
  increase of plateau level compared to baseline: ~300%
[7]
  effect on NO production: marked elevation in NO production

## polyoxyethylene sorbitan monolaurate [1% Tween-20 ®]
[6]; [9]
  mean relative change in NO output compared to baseline: −9% at
[6]; 5 min after mouthwash
  mean relative change in NO output compared to baseline: −6% at

## OO [1% H2O2, hydrogen peroxide]
[6]
  effect on NO output: increased NO output

## O=C([O-])O.[Na+] [sodium bicarbonate]
[3]; mouthwash 180 min after nitrate load
  reduction of plateau: more than 30%
[3]; mouthwash 180 min after nitrate load, before mouthwash 52.7±4.8
  plateau NO release: 36.2 ± 4.2 pmol/s
[1]; 120 s after 30 s mouthwash
  plateau NO release: 34.4 ± 3.6 pmol/s
[1]; [10]
  plateau NO release: 31.3 ± 3.1 pmol/s
[1]; [11]
  peak level of NO: 309.2±43.0 ppb
[6]; [9]
  mean relative change in NO output compared to baseline: −7% at
[6]; 5 min after mouthwash
  mean relative change in NO output compared to baseline: −5% at
[6]; 15 min after mouthwash
  mean relative change in NO output compared to baseline: −8% at
[6]; 30 min after mouthwash
  mean relative change in NO output compared to baseline: −8% at

Source: US6626844B1, “Method and composition for inhibition of nitric oxide production in the oral cavity” (Aerocrine AB, priority 1998, dated 2003)
